Measurements as given in article PMC9166630, “SAR Probing of KX2-391 Provided Analogues With Juxtaposed Activity Profile Against Major Oncogenic Kinases” (Frontiers in Oncology, 2022).
Where “and” joins values, the source holds several entries; their conditions need not be identical. Equal entries are not always repeated.

Key:
[1] = target: T1, TEC (Homo sapiens, UniProt P42680); test: PamChip tyrosine kinase microarray, TEC; assay type: biochemical; settings: 4e 0.1 µM, HL60 lysate
T1 construct: endogenous in cells; host or cells: HL60 lysate
T1 sequence (P42680 1-631): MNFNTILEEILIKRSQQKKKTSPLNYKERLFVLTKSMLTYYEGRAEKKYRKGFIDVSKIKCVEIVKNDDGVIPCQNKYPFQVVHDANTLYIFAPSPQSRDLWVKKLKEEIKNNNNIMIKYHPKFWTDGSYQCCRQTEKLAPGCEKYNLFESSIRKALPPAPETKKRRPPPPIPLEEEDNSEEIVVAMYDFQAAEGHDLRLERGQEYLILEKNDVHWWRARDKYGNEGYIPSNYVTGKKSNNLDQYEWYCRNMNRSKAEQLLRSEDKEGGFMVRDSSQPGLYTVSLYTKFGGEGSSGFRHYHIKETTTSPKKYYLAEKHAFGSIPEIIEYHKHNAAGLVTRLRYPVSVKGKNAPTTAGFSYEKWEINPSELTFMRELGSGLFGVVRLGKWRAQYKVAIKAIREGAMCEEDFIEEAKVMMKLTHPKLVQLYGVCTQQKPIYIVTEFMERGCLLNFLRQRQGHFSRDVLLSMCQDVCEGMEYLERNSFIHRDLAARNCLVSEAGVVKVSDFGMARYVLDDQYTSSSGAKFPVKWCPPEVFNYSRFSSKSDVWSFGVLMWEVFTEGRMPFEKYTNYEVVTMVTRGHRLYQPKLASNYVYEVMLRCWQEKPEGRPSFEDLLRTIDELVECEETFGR
Procedure: (§1) The changes in kinase activities induced by treatment with 4e were monitored within the HL60 cell lines using PamGene’s (Hertogenbosch, Netherlands) PamChip® peptide microarray profiler, which quantifies the activities of 144 tyrosine kinases (YK) ([29], [30]) (Figure 7). Results are provided as a log fold change (LFC) heatmap and Mean Kinase Statistic. From the LFC it is apparent that compound 4e, at a concentration of 0.1 µM, induced sizable changes to the activity of several kinases within the cell signaling YK profile (Figure 7A).
(§2) An Upstream Kinase tool was used to generate a putative list of kinases responsible for phosphorylating the phospho-sites on the PamChip (Figure 7B) ([31]). It is an interpretation and is highly dependent on the contents of the underlying phosphorylation databases. A Kinase Score was used for ranking kinases based on their significance and specificity in terms of the set of peptides used for the corresponding kinase. Kinase Statistics indicates the overall change of the peptide set that represents the kinase. Kinase statistics value <0 indicates lower kinase activity in the compound spiked lysate and vice versa ([32], [33]). Table 5 lists the 20 most changed kinases within treated HL60 cell lysates by 0.1 μM 4e, ranked according to their Kinase Score.
(§3) The compound 4e was spiked into HL60 cell lysate at different concentrations (0.001, 0.01, 0.1, 1, 10 and 50 μM). In addition, DMSO was also spiked in HL60 lysate at low concentration (2% v/v) as control. Samples were profiled on PamGene’s Tyrosine Kinase (PTK) arrays in technical replicates, covering a total of 196 phosphorylation sites. Frozen HL60 cultured cell pellet was sent to PamGene. At PamGene, cells were lysed using a lysis buffer and proteases inhibitors cocktail. Protein concentration was measured using standard Bradford assay as per PamGene SOPs. These lysates were further used for generating the PTK activity profiles. For spiking, 4e was received as powder form and dissolved in DMSO at PamGene facility followed by storing at -20°C in small aliquots. PamGene used its in-house bioinformatics toolbox in combination with other methods to generate hypotheses of signaling pathways.

[2] = test system: AKT 1/2/3; test: Human phosphokinase array, AKT 1/2/3; assay type: cell-based
From the text: (§4) The kinome tree representation (Figure 7C), which was generated by raising the Kinase Score cut-off to >1.2, confirmed that, unlike tirbanibulin and our prototype molecule KX1-136, 4e’s effects were more observable on kinases other than the Src family such as the Eph and TEC families. […] Therefore, we screened compound 4e using the Human Phospho-Kinase Array® kit from R&D systems (Minneapolis, MN, USA). In this system, 35 phosphorylated YK and serine-threonine kinase (STK) enzymes in the untreated (control) and treated (test) HL60 cell lysates were captured on nitrocellulose membrane, pre-spotted with phosphokinase-specific capture antibodies, and then visualized by detection antibody cocktails (Figure 8). The difference in the spot intensity between untreated (control) and treated cells is proportional to change in the amount of the phosphorylated protein induced by 4e.
(§5) The phosphorylation profile of 48 kinases was performed using the Proteome Profiler Human Phospho-Kinase Antibody Array Kit by R&D Systems (Minneapolis, MN, USA) according to the protocol. Briefly, the total cellular protein was extracted using the Lysis buffer and was quantified using Bio-Rad DC Protein Assay kit (Hercules, CA, USA). Nitrocellulose membrane set (A&B), pre-spotted with kinase-specific capture antibodies, were first blocked with Array Buffer-1 at RT for 30 min on a rocking platform shaker. Approximately 600 µg of protein concentrate was diluted in the buffer provided and was added onto the membrane set, and the membranes were incubated overnight at 4°C in an 8-well plate. Subsequently, membranes were washed with Wash Buffer and incubated with appropriate Detection Antibody cocktails for 2 h at RT. Streptavadin-HRP (1:2000) was added onto membranes and incubated for 30 min at RT. Membranes were washed, and Chemiluminescent Detection Reagents 1&2 were applied in equal volumes for detection. The signals were detected on C-DiGit®Blot Scanner (LI-COR, Odyssey Imaging Systems, Lincoln, Nebraska, USA) using Image Studio 5.0 software.

[3] = target: T2, Ros (Homo sapiens, UniProt P08922); test: PamChip tyrosine kinase microarray, Ros; assay type: biochemical; settings: 4e 0.1 µM, HL60 lysate
T2 construct: endogenous in cells; host or cells: HL60 lysate
T2 sequence (P08922 28-2347): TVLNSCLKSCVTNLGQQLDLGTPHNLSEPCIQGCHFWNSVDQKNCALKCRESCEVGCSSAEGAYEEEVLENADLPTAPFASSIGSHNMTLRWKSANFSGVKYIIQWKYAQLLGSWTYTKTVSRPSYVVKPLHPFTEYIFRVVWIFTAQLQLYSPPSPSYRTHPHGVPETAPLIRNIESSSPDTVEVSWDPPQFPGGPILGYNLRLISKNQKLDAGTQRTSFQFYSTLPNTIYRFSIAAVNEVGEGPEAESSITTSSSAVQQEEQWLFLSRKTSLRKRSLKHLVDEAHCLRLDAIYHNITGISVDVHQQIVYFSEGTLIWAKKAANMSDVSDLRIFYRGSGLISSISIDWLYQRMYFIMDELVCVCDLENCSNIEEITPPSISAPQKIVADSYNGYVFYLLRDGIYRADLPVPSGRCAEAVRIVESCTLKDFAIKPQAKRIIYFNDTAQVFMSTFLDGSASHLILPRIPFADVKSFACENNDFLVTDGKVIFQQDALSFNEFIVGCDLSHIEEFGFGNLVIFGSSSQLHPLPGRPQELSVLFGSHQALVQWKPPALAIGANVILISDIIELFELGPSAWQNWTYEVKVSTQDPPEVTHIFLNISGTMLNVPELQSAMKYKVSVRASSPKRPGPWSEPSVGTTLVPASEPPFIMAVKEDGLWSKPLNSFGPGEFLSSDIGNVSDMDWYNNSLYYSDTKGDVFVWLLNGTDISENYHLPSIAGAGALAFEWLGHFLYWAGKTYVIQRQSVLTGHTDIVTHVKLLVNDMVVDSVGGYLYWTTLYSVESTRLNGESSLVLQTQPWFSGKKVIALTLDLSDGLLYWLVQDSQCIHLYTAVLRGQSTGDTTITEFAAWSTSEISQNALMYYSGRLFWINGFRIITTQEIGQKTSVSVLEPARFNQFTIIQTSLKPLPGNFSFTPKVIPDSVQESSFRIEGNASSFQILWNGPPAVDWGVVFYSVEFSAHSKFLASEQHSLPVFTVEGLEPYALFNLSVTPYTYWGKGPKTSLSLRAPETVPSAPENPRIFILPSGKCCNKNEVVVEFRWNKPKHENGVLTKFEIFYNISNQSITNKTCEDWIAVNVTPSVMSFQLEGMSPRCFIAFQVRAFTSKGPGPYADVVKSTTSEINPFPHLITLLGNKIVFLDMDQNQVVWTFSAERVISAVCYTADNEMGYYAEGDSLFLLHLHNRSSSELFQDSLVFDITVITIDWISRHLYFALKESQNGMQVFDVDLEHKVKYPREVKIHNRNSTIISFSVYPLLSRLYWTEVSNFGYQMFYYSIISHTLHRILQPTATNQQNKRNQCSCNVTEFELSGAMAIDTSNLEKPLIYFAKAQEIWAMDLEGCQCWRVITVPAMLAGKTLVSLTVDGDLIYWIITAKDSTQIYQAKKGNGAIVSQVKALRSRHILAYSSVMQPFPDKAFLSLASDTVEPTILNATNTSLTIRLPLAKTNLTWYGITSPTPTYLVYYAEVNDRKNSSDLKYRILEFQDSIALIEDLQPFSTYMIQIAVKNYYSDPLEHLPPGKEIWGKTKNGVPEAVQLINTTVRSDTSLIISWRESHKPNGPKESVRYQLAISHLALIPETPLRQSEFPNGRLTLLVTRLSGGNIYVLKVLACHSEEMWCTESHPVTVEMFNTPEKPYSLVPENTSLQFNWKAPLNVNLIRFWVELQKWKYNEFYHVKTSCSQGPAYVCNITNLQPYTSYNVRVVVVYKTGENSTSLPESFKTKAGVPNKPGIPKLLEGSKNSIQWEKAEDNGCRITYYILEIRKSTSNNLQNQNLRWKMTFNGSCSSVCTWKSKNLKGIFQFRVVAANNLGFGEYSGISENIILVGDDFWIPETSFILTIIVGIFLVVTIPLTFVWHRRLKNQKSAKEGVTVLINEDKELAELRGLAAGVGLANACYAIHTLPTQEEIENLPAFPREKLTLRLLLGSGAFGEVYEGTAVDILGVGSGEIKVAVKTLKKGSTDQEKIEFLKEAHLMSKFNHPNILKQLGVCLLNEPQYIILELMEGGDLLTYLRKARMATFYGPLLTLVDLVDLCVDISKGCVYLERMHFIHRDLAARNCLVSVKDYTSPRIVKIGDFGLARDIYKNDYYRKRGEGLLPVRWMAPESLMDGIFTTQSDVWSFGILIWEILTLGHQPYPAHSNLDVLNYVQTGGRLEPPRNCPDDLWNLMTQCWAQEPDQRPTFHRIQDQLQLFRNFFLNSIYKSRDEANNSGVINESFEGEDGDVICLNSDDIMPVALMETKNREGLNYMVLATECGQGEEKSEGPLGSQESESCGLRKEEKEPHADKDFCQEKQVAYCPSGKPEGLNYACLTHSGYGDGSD
Procedure: as §1, §2, §3

[4] = target: T3, Srm (Homo sapiens, UniProt Q9H3Y6); test: PamChip tyrosine kinase microarray, Srm; assay type: biochemical; settings: 4e 0.1 µM, HL60 lysate
T3 construct: endogenous in cells; host or cells: HL60 lysate
T3 sequence (Q9H3Y6 whole entry): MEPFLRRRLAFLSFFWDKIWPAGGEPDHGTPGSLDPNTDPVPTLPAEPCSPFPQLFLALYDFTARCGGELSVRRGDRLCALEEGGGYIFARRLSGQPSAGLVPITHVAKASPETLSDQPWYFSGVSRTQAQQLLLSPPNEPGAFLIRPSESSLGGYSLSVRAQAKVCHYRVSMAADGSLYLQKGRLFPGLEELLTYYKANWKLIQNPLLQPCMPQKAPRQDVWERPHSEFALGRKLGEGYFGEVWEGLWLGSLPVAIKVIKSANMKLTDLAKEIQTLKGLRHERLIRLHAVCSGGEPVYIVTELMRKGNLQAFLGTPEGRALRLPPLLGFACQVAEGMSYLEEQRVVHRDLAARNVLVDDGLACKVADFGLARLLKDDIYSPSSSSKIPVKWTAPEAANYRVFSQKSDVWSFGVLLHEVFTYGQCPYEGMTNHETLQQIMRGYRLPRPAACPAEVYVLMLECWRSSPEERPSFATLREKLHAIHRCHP
Procedure: as §1, §2, §3

[5] = test system: GSK-3α/β; test: Human phosphokinase array, GSK-3α/β; assay type: cell-based
From the text: as §4, §5

O=C(Cc1ccc(NC(=O)c2cccc(Cl)c2)cc1)NCc1ccccc1 [Compound 4e, N-(4-(2-(benzylamino)-2-oxoethyl)phenyl)-3-chlorobenzamide]
Mean Final Score [1]: 1.9733
Mean Kinase Statistic [1]: -0.5256
Mean Significance Score [1]: 1.3350
Mean Specificity Score [1]: 0.6383
increased phosphorylation of Akt1/2/3 at Thr308 and Ser473 compared to control ([2]; HL60, versus no treatment): > 117 fold
phosphokinase signal after 4e exposure, AKT 1/2/3 ([2]; HL60 cell lysate, treated): 22.29
% Change, AKT 1/2/3 ([2]; treated vs untreated HL60): 11783.08%
Change in Signal, AKT 1/2/3 ([2]; treated vs untreated HL60): 22.10
Mean Final Score [3]: 2.0991
Mean Kinase Statistic [3]: -0.9704
Mean Significance Score [3]: 0.9578
Mean Specificity Score [3]: 1.1413
Mean Final Score [4]: 2.2692
Mean Kinase Statistic [4]: -0.5863
Mean Significance Score [4]: 1.1518
Mean Specificity Score [4]: 1.1174
phosphokinase signal after 4e exposure, GSK-3α/β ([5]; HL60 cell lysate, treated): 102.64
Change in Signal, GSK-3α/β ([5]; treated vs untreated HL60): 22.94
% Change, GSK-3α/β ([5]; treated vs untreated HL60, Ser9 phosphorylation): 28.78% and 28%
